{"source": "patent US11110070B2", "about": "(priority 2015, dated 2021)", "key": {"129S6/SvEvTac mice [1]": {"test_system": "129S6/SvEvTac mice", "experiment": "Social interaction with a novel mouse after SD", "type": "in vivo", "conditions": "ketamine 30 mg kg^−1 before SD", "experimental": "Mice were placed into a large open field containing 2 upside-down wire mesh pencil cups. One pencil cup served as a novel object or empty container. The other pencil cup contained a novel 129S6/SvEv male mouse. Mice were placed in the middle of the open field arena and allowed to explore for 10 min. Sessions were videotaped and the first 5 min were later analyzed using behavioral tracking software (TopScan, CleverSys, Reston, Va.)."}, "C57BL/6NTac mice [2]": {"test_system": "C57BL/6NTac mice", "experiment": "FST in chronic corticosterone (CORT) model", "type": "in vivo"}, "129S6/SvEvTac mice [3]": {"test_system": "129S6/SvEvTac mice", "experiment": "Elevated plus maze (EPM) in SD experiments", "type": "in vivo", "conditions": "ketamine 30 mg kg^−1 before SD; Ctrl and SD groups", "experimental": "Testing was performed as previously described (A14). Briefly, the maze is a plus-cross-shaped apparatus consisting of four arms, two open and two enclosed by walls, linked by a central platform at a height of 50 cm from the floor. Mice were individually placed in the center of the maze facing an open arm and were allowed to explore the maze for 5 min. The time spent in and the number of entries into the open arms was used as an anxiety index. For the 12956/SvEv experiments, videos were scored using behavioral tracking software (TopScan, CleverSys, Reston, Va.). For the C57BL/6Ntac experiments, all parameters were measured using a videotracker (EPM3C. Bioseb, Vitrolles, France)."}, "[4]": {"experiment": "Body weight loss before NSF in SD experiments", "type": "in vivo", "conditions": "SD mice; ketamine after SD; vs saline", "experimental": "(§1) Testing was performed as previously described (A13). Briefly, the testing apparatus consisted of a plastic box (50×50×20 cm). The floor was covered with approximately 2 cm of wooden bedding and the arena was brightly lit (1100-1200 lux). For 129S6/SvEv experiments, mice were food restricted for 12 h. For the C57BL/6N experiments, mice were food restricted for 24 h. All food was removed from the home cage. At the time of testing, a single pellet of food (regular chow) was placed on a white paper platform positioned in the center of the box. Each animal was placed in a corner of the box, and a stopwatch was immediately started. The latency of the mice to begin eating was recorded. Immediately after the latency was recorded, the food pellet was removed from the arena. The mice were then placed into a cage and the amount of food consumed in 5 min was measured (home cage consumption), followed by an assessment of post-restriction weight. We used the Kaplan-Meier survival analysis due to the lack of normal distribution of data. The Mantel-Cox log-rank test was used to evaluate differences between the experimental groups."}, "[5]": {"test_system": "hypothalamic-pituitary-adrenal (HPA) axis", "experiment": "Corticosterone enzyme immunoassay after a brief stressor (SD model)", "type": "in vivo", "conditions": "SD mice; ketamine 10, 30 or 90 mg kg^−1 before SD; vs Ctrl-Sal", "experimental": "Mice were exposed to a minor stressor for 10 min and then returned to their home cages. Blood was collected from awake mice 70 min after the start of the stressor from the retro-orbital sinus using hematocrit tubes. Blood was then transferred to Eppendorf tubes pre-coated with 5 μl 0.5 M EDTA, placed on ice, and immediately spun down to obtain plasma for subsequent EIA. Plasma was stored at −80° C. until analysis. EIA was performed using a DetectX Corticosterone EIA Kit (#K014-H1, Arbor Assays)."}, "C57BL/6NTac mice [6]": {"test_system": "C57BL/6NTac mice", "experiment": "NSF in CORT model", "type": "in vivo", "conditions": "ketamine 10 and 90 mg kg^−1 before CORT", "experimental": "Experiment 5 (Pre-ketamine and pre-fluoxetine corticosterone (CORT)): C57BL16NTac mice were injected with ketamine (10, 30, 90 mg kg^−1, i.p.) 1 week before the start of CORT, or administered fluoxetine (18 mg kg^−1 per day) in the drinking water for 3 weeks before the start of CORT. Ketamine was purchased from Merial (100 mg/ml stock solution). Fluoxetine hydrochloride (160 μg/mL, equivalent to 18 mg kg^−1 per day in the drinking water) was purchased from Anawa Trading (Zurich, Switzerland) and dissolved in 0.45% hydroxypropyl-β-cyclodextrin (β-CD) (Sigma-Aldrich, Saint-Quentin Fallavier, France) solution. Following ketamine or fluoxetine treatment, CORT was administered for 3 weeks in the drinking water. CORT (4-pregnen-11b-DIOL-3 20-DIONE 21-hemisuccinate) (35 μg/ml) from. Sigma Aldrich (Saint-Quentin Fallavier, France) was dissolved in vehicle (0.45% β-CD). Control animals received vehicle (0.45% β-CD) throughout the duration of the experiment. […]\nTesting was performed as previously described (A13). […] The latency of the mice to begin eating was recorded. Immediately after the latency was recorded, the food pellet was removed from the arena. The mice were then placed into a cage and the amount of food consumed in 5 min was measured (home cage consumption), followed by an assessment of post-restriction weight. […]"}, "C57BL/6J strain": {"test_system": "C57BL/6J strain", "conditions": "cited from earlier work"}, "129S6/SvEvTac mice [7]": {"test_system": "129S6/SvEvTac mice", "experiment": "Fighting behavior during SD bouts", "type": "in vivo", "conditions": "for latency of the CD-1 to attack the 129S6/SvEv mouse: vs SD-Sal", "experimental": "Adult aggressor CD-1 male mice were single-housed in Macrolon® polycarbonate resin cages (15.25 in×7.8 in×9.5 in) (Animal Care Systems, Inc., Centennial, Colo.). Male 129S6/SvEvTac mice (9 weeks of age) were subsequently placed into the resident. CD-1 mouse's cage. Three antagonistic encounters were allowed between the CD-1 mouse and the intruder. Each of these encounters typically lasted less than 5 min. Following the encounters, mice were separated by a polished stainless steel cage divider (Animal Care Systems, Inc., Centennial, Colo., P/N C79171), which allowed for olfactory and auditory communication, but limited visual or tactile contact. The partition was removed daily for 2 weeks and 3 antagonistic encounters were allowed between the mice each day. This procedure consistently yielded a submissive phenotype in the experimental intruder mice. Control (Ctrl) mice were group housed 4 to 5 per cage in Macrolon® polycarbonate resin cages without dividers."}, "129S6/SvEv mice": {"test_system": "129S6/SvEv mice", "experiment": "FST after prophylactic ketamine or ketamine metabolites (FIG. 15)", "type": "in vivo", "conditions": "prophylactic K-injected vs Sal-injected mice"}, "129S6/SvEvTac mice [8]": {"test_system": "129S6/SvEvTac mice", "experiment": "Novelty suppressed feeding (NSF) in SD experiments", "type": "in vivo", "experimental": "as §1"}, "patients with MDD": {"test_system": "patients with MDD", "conditions": "cited from earlier work"}, "[9]": {"conditions": "20 mg kg^−1 following the final SD session"}}, "note": "Entries after “also recorded” stand apart in the source; their conditions may differ. Like-named read-outs stand apart in the source and are kept apart here.", "data": [{"smiles": "CNC1(c2ccccc2Cl)CCCCC1=O", "note": "(racemic) [ketamine, (RS)-2-(2-chlorophenyl)-2-(methylamino)cyclohexanone]", "values": [{"measurement": "social interaction with a novel mouse", "setting": "129S6/SvEvTac mice [1]", "value": "did not find an effect"}, {"measurement": "most effective dose in protecting against depressive-like behavior following chronic CORT", "setting": "C57BL/6NTac mice [2]; C57BL/6NTac mice, doses tested 10, 30, 90 mg kg^−1", "value": 90, "unit": "mg/kg"}, {"measurement": "persistence of ketamine-induced resilience post-injection", "setting": "C57BL/6NTac mice [2]; CORT model", "value": "≥ 4", "unit": "weeks"}, {"measurement": "immobility time on day 2 in the FST", "setting": "C57BL/6NTac mice [2]; ketamine 90 mg kg^−1 or fluoxetine 18 mg kg^−1/day, before 3 weeks of CORT", "value": "decreased immobility time; also recorded: significantly reduced immobility"}, {"measurement": "time in the closed arms of EPM", "setting": "129S6/SvEvTac mice [3]", "value": "no significant effect of ketamine in either group"}, {"measurement": "percentage of weight loss", "setting": "[4]", "value": "lessened the percentage of weight loss; also recorded: attenuated this weight loss"}, {"measurement": "levels of CORT following a brief stressor", "setting": "[5]", "value": "did not differ from Ctrl-Sal mice"}, {"measurement": "latency to feed in NSF", "setting": "C57BL/6NTac mice [6]", "value": "prevented the chronic CORT-induced increase in latency to feed; also recorded: decreased the latency to feed"}, {"measurement": "social avoidance", "setting": "C57BL/6J strain; 20 mg kg^−1 administered before SD", "value": "did not attenuate social avoidance"}, {"measurement": "anhedonia", "setting": "C57BL/6J strain; [9]", "value": "not anhedonia"}, {"measurement": "social avoidance", "setting": "C57BL/6J strain; [9]", "value": "attenuated social avoidance"}, {"measurement": "average immobility during week 2 of SD bouts", "setting": "129S6/SvEvTac mice [7]; SD-K vs SD-Sal", "value": "significantly decreased; also recorded: significantly altered"}, {"measurement": "average immobility time during week 1 of SD bouts", "setting": "129S6/SvEvTac mice [7]; all groups", "value": "not significantly different"}, {"measurement": "latency of the CD-1 to attack the 129S6/SvEv mouse", "setting": "129S6/SvEvTac mice [7]; ketamine 30 mg kg^−1, at the start of SD", "value": "significantly later; also recorded: only differed"}, {"measurement": "latency of the CD-1 to attack the 129S6/SvEv mouse", "setting": "129S6/SvEvTac mice [7]; ketamine 10 or 90 mg kg^−1", "value": "comparably attacked"}, {"measurement": "immobility in day 2 of the FST", "setting": "129S6/SvEv mice", "value": "significantly less immobility"}, {"measurement": "latency to eat in NSF", "setting": "129S6/SvEvTac mice [8]; Ctrl mice, ketamine in post-SD design, vs saline", "value": "decreased the latency to eat; also recorded: significantly decreased the latency to approach the food pellet"}, {"measurement": "latency to eat in NSF", "setting": "129S6/SvEvTac mice [8]; SD mice, ketamine after SD, vs SD-Sal", "value": "abolished; also recorded: did not differ from one another"}, {"measurement": "latency to feed in NSF", "setting": "129S6/SvEvTac mice [8]; ketamine 30 mg kg^−1 before SD", "value": "no significant effect"}, {"measurement": "duration of sustained effects following the infusion", "setting": "patients with MDD; in vivo", "value": "1-2 weeks"}, {"measurement": "time to antidepressant effects following a single injection", "setting": "patients with MDD; patients with MDD", "value": 2, "unit": "h"}]}]}
